{"source": "patent US20240293413A1", "about": "“COMPOUND AND METHOD FOR TREATING CHEMOTHERAPY-RELATED GASTROINTESTINAL SIDE EFFECTS” (ONQUALITY PHARMACEUTICALS CHINA LTD., priority 2021, published 2024)", "key": {"[1]": {"tested_on": "diarrhea caused by a chemotherapeutic agent in Balb/c mice", "test": "Examples 230-271 (Table 4): oral CDK inhibitor, relief of diarrhea caused by a chemotherapeutic agent", "type": "in vivo", "excerpt": "Balb/c mice were fed for 1 week, and then divided into groups. The experiment was divided into a control group, a chemotherapeutic agent group, and a CDK inhibitor group, each of which comprised 10 mice, to perform the administration experiment, for which the administration dosage, mode, time and frequency were shown in Table 4. The control group: being intragastrically administered with the same solvent as that used in the CDK inhibitor group (the time was shown in Table 4), and then being injected/intragastrically administered with the same solvent as that used in the chemotherapeutic agent group (the administration mode was shown in Table 4): the chemotherapeutic agent group: being intragastrically administered with the same solvent as that used in the CDK inhibitor group (the time was shown in Table 4), and then being injected/intragastrically administered with the chemotherapeutic agent (the type, administration mode and dosage were shown in Table 4): the CDK inhibitor group: being intragastrically administered with the CDK inhibitor (the time was shown in Table 4), and then being administered with the chemotherapeutic agent (the mode and dosage were shown in Table 4).\nThe diarrhea grading of mice was observed and recorded every day."}, "[2]": {"tested_on": "constipation caused by the continuous administration of a chemotherapeutic agent in Balb/c mice", "test": "Examples 470-481 (Table 10): oral CDK inhibitor, constipation caused by continuous administration of a chemotherapeutic agent", "type": "in vivo", "details": "Fluorouracil (5-Fu) intraperitoneal injection 100 mg/kg once a day", "excerpt": "Balb/c mice were fed for 1 week, and then divided into groups. The experiment was divided into a control group, a chemotherapeutic agent group, and a CDK inhibitor group, each of which comprised 10 mice, to perform the administration experiment, for which the administration dosage, mode, time and frequency were shown in Table 10. The control group: being intragastrically administered with the same solvent as that used in the CDK inhibitor group (the time was shown in Table 10), and then being injected/intragastrically administered with the same solvent as that used in the chemotherapeutic agent group (the administration mode was shown in Table 10): the chemotherapeutic agent group: being intragastrically administered with the same solvent as that used in the CDK inhibitor group (the time was shown in Table 10), and then being injected/intragastrically administered with the chemotherapeutic agent (the type, administration mode, dosage and duration time were shown in Table 10): the CDK inhibitor group: being intragastrically administered with the CDK inhibitor (the time was shown in Table 10), and then being administered with the chemotherapeutic agent (the type, administration mode, dosage and duration time were shown in Table 10).\nThe feces reduction rate was calculated with reference to the method of Ji Eun Kim (Lab Anim Res. 2016 December: 32(4): 231-240.). Feces reduction rate (%)=(the control group−the chemotherapeutic agent group or the CDK inhibitor group)/the control group*100%\nIt is regarded as effective remission when the feces reduction rate of mice in the CDK inhibitor group is reduced compared with that in the chemotherapeutic agent group.\nThe feces amount of mice within 3 hours was observed and recorded every day. At the end of the experiment, the number of mice in the CDK inhibitor group whose feces reduction rate was lower than that of mice in the chemotherapeutic agent group was recorded. Table 10 lists various animal experiment combinations of chemotherapeutic agents and CDK inhibitors, as well as the corresponding experimental results."}}}
{"smiles": "CCN1CCN(Cc2ccc(Nc3ncc(F)c(-c4cc(F)c5nc(C)n(C(C)C)c5c4)n3)nc2)CC1", "note": "[Abemaciclib]", "values": [{"measurement": "Relative remission rate", "setting": "[1]; Example 253, Methotrexate (MTX) intramuscular injection 300 mg/kg single, CDK inhibitor oral 150 mg/kg single, 8 h before, cycle 7 days", "result": 70, "unit": "%"}, {"measurement": "Relative remission rate", "setting": "[1]; Example 263, Vinorelbine (NVB) intravenous injection 10 mg/kg single, CDK inhibitor oral 150 mg/kg single, 0.5 h before, cycle 7 days", "result": 60, "unit": "%"}, {"measurement": "Relative remission rate", "setting": "[1]; Example 264, Vinorelbine (NVB) intravenous injection 10 mg/kg single, CDK inhibitor oral 150 mg/kg single, 4 h before, cycle 7 days", "result": 80, "unit": "%"}, {"measurement": "Relative remission rate", "setting": "[1]; Example 265, Vinorelbine (NVB) intravenous injection 10 mg/kg single, CDK inhibitor oral 150 mg/kg single, 8 h before, cycle 7 days", "result": 80, "unit": "%"}, {"measurement": "Relative remission rate", "setting": "[1]; Example 266, Vinorelbine (NVB) intravenous injection 10 mg/kg single, CDK inhibitor oral 150 mg/kg single, 12 h before, cycle 7 days", "result": 60, "unit": "%"}, {"measurement": "Relative remission rate", "setting": "[1]; Example 267, Vinorelbine (NVB) intravenous injection 10 mg/kg single, CDK inhibitor oral 150 mg/kg single, 24 h before, cycle 7 days", "result": 50, "unit": "%"}, {"measurement": "Relative remission rate", "setting": "[1]; Example 268, Vinorelbine (NVB) intravenous injection 10 mg/kg single, CDK inhibitor oral 150 mg/kg single, 48 h before, cycle 7 days", "result": 0, "unit": "%"}]}
{"smiles": "CC(=O)c1c(C)c2cnc(Nc3ccc(N4CCNCC4)cn3)nc2n(C2CCCC2)c1=O", "note": "[Palbociclib]", "values": [{"measurement": "Relative remission rate", "setting": "[1]; Example 230, Doxorubicin (Dox) intraperitoneal injection 10 mg/kg single, CDK inhibitor oral 150 mg/kg single, 0.5 h before, cycle 12 days", "result": 50, "unit": "%"}, {"measurement": "Relative remission rate", "setting": "[1]; Example 231, Doxorubicin (Dox) intraperitoneal injection 10 mg/kg single, CDK inhibitor oral 150 mg/kg single, 4 h before, cycle 12 days", "result": 70, "unit": "%"}, {"measurement": "Relative remission rate", "setting": "[1]; Example 232, Doxorubicin (Dox) intraperitoneal injection 10 mg/kg single, CDK inhibitor oral 150 mg/kg single, 8 h before, cycle 12 days", "result": 70, "unit": "%"}, {"measurement": "Relative remission rate", "setting": "[1]; Example 233, Doxorubicin (Dox) intraperitoneal injection 10 mg/kg single, CDK inhibitor oral 150 mg/kg single, 12 h before, cycle 12 days", "result": 80, "unit": "%"}, {"measurement": "Relative remission rate", "setting": "[1]; Example 234, Doxorubicin (Dox) intraperitoneal injection 10 mg/kg single, CDK inhibitor oral 150 mg/kg single, 24 h before, cycle 12 days", "result": 50, "unit": "%"}, {"measurement": "Relative remission rate", "setting": "[1]; Example 235, Doxorubicin (Dox) intraperitoneal injection 10 mg/kg single, CDK inhibitor oral 150 mg/kg single, 48 h before, cycle 12 days", "result": 0, "unit": "%"}, {"measurement": "Relative remission rate", "setting": "[1]; Example 249, Methotrexate (MTX) oral administration 400 mg/kg single, CDK inhibitor oral 125 mg/kg single, 4 h before, cycle 7 days", "result": 60, "unit": "%"}, {"measurement": "Relative remission rate", "setting": "[1]; Example 250, Methotrexate (MTX) oral administration 400 mg/kg single, CDK inhibitor oral 125 mg/kg single, 24 h before, cycle 7 days", "result": 60, "unit": "%"}, {"measurement": "Relative remission rate", "setting": "[1]; Example 260, Cytarabine (Ara-C) intravenous injection 600 mg/kg single, CDK inhibitor oral 150 mg/kg single, 6 h before, cycle 8 days", "result": 60, "unit": "%"}, {"measurement": "Relative remission rate", "setting": "[1]; Example 271, Vinorelbine (NVB) intraperitoneal injection 10 mg/kg single, CDK inhibitor oral 200 mg/kg single, 12 h before, cycle 7 days", "result": 70, "unit": "%"}, {"measurement": "Remission rate", "setting": "[2]; Examples 470-473 (one value given; 2 h, 4 h, 6 h, 8 h before), for 3 days, CDK inhibitor oral 150 mg/kg once a day, for 3 days, cycle 10 days", "result": 40, "unit": "%"}, {"measurement": "Remission rate", "setting": "[2]; Examples 474-477 (one value given; 2 h, 4 h, 6 h, 8 h before), for 5 days, CDK inhibitor oral 125 mg/kg once a day, for 5 days, cycle 9 days", "result": 50, "unit": "%"}, {"measurement": "Remission rate", "setting": "[2]; Examples 478-481 (one value given; 2 h, 4 h, 6 h, 8 h before), for 7 days, CDK inhibitor oral 125 mg/kg once a day, for 7 days, cycle 10 days", "result": 10, "unit": "%"}]}
{"smiles": "CN(C)C(=O)c1cc2cnc(Nc3ccc(N4CCNCC4)cn3)nc2n1C1CCCC1", "note": "[Ribociclib]", "values": [{"measurement": "Relative remission rate", "setting": "[1]; Example 243, Methotrexate (MTX) intravenous injection 300 mg/kg single, CDK inhibitor oral 125 mg/kg single, 0.5 h before, cycle 7 days", "result": 80, "unit": "%"}, {"measurement": "Relative remission rate", "setting": "[1]; Example 244, Methotrexate (MTX) intravenous injection 300 mg/kg single, CDK inhibitor oral 125 mg/kg single, 4 h before, cycle 7 days", "result": 60, "unit": "%"}, {"measurement": "Relative remission rate", "setting": "[1]; Example 245, Methotrexate (MTX) intravenous injection 300 mg/kg single, CDK inhibitor oral 125 mg/kg single, 8 h before, cycle 7 days", "result": 80, "unit": "%"}, {"measurement": "Relative remission rate", "setting": "[1]; Example 246, Methotrexate (MTX) intravenous injection 300 mg/kg single, CDK inhibitor oral 125 mg/kg single, 12 h before, cycle 7 days", "result": 40, "unit": "%"}, {"measurement": "Relative remission rate", "setting": "[1]; Example 247, Methotrexate (MTX) intravenous injection 300 mg/kg single, CDK inhibitor oral 125 mg/kg single, 24 h before, cycle 7 days", "result": 60, "unit": "%"}, {"measurement": "Relative remission rate", "setting": "[1]; Example 248, Methotrexate (MTX) intravenous injection 300 mg/kg single, CDK inhibitor oral 125 mg/kg single, 48 h before, cycle 7 days", "result": 0, "unit": "%"}, {"measurement": "Relative remission rate", "setting": "[1]; Example 251, Methotrexate (MTX) intraperitoneal injection 260 mg/kg single, CDK inhibitor oral 200 mg/kg single, 12 h before, cycle 7 days", "result": 50, "unit": "%"}, {"measurement": "Relative remission rate", "setting": "[1]; Example 252, Methotrexate (MTX) intraperitoneal injection 260 mg/kg single, CDK inhibitor oral 200 mg/kg single, 48 h before, cycle 7 days", "result": 0, "unit": "%"}, {"measurement": "Relative remission rate", "setting": "[1]; Example 269, Vinorelbine (NVB) oral administration 15 mg/kg single, CDK inhibitor oral 100 mg/kg single, 24 h before, cycle 11 days", "result": 50, "unit": "%"}]}
{"smiles": "CN1CCN(c2ccc(Nc3ncc4cc5n(c4n3)C3(CCCCC3)CNC5=O)nc2)CC1", "note": "[Trilaciclib (G1T28), Trilaciclib]", "values": [{"measurement": "Relative remission rate", "setting": "[1]; Example 236, Doxorubicin (Dox) intravenous injection 12 mg/kg single, CDK inhibitor oral 180 mg/kg single, 1 h before, cycle 10 days", "result": 40, "unit": "%"}, {"measurement": "Relative remission rate", "setting": "[1]; Example 237, Doxorubicin (Dox) intravenous injection 12 mg/kg single, CDK inhibitor oral 180 mg/kg single, 12 h before, cycle 10 days", "result": 60, "unit": "%"}, {"measurement": "Relative remission rate", "setting": "[1]; Example 238, Doxorubicin (Dox) intravenous injection 12 mg/kg single, CDK inhibitor oral 180 mg/kg single, 24 h before, cycle 10 days", "result": 60, "unit": "%"}, {"measurement": "Relative remission rate", "setting": "[1]; Example 239, Doxorubicin (Dox) intravenous injection 12 mg/kg single, CDK inhibitor oral 180 mg/kg single, 48 h before, cycle 10 days", "result": 0, "unit": "%"}, {"measurement": "Relative remission rate", "setting": "[1]; Example 254, Cytarabine (Ara-C) intraperitoneal injection 600 mg/kg single, CDK inhibitor oral 100 mg/kg single, 0.5 h before, cycle 8 days", "result": 60, "unit": "%"}, {"measurement": "Relative remission rate", "setting": "[1]; Example 255, Cytarabine (Ara-C) intraperitoneal injection 600 mg/kg single, CDK inhibitor oral 100 mg/kg single, 4 h before, cycle 8 days", "result": 80, "unit": "%"}, {"measurement": "Relative remission rate", "setting": "[1]; Example 256, Cytarabine (Ara-C) intraperitoneal injection 600 mg/kg single, CDK inhibitor oral 100 mg/kg single, 8 h before, cycle 8 days", "result": 80, "unit": "%"}, {"measurement": "Relative remission rate", "setting": "[1]; Example 257, Cytarabine (Ara-C) intraperitoneal injection 600 mg/kg single, CDK inhibitor oral 100 mg/kg single, 12 h before, cycle 8 days", "result": 60, "unit": "%"}, {"measurement": "Relative remission rate", "setting": "[1]; Example 258, Cytarabine (Ara-C) intraperitoneal injection 600 mg/kg single, CDK inhibitor oral 100 mg/kg single, 24 h before, cycle 8 days", "result": 40, "unit": "%"}, {"measurement": "Relative remission rate", "setting": "[1]; Example 259, Cytarabine (Ara-C) intraperitoneal injection 600 mg/kg single, CDK inhibitor oral 100 mg/kg single, 48 h before, cycle 8 days", "result": 0, "unit": "%"}, {"measurement": "Relative remission rate", "setting": "[1]; Example 270, Vinorelbine (NVB) intramuscular injection 10 mg/kg single, CDK inhibitor oral 50 mg/kg single, 1 h before, cycle 7 days", "result": 50, "unit": "%"}]}
